Source: patent US20130129675A1, “INTERFERON THERAPIES IN COMBINATION WITH BLOCKADE OF STAT3 ACTIVATION” (BOARD OF REGENTS, THE UNIVERSITY OF TEXAS SYSTEM, priority 2009, published 2013)

What was measured:
Type in all cases: cell-based, human
[1] = tested on: STAT3 in HaCaT keratinocytes; assay: pSTAT3 level in HaCaT keratinocytes (MSD chemiluminescent detection); settings: pre-incubated
Procedure: Prior to experiments, the DMEM medium was changed to KGM-SFM containing rEGF and bovine pituitary extract for 12 hours, and the cells then exposed to various stimuli for 30 minutes. Cell lysates were extracted in IP lysis buffer were diluted in MSD extraction buffer and 25 uL of the cell lysate containing 10 ug protein was used in the analysis via chemiluminescent detection (MSD Technology). To test for inhibition by WP1220 (WP), cells were pre-incubated with WP1220 prior to the addition of IFN α.

HH cells = assay: Caspase-3 and PARP cleavage in HH cells
Procedure: (§1) To determine whether IFN alpha and beta were able to selectively phosphorylate STAT3 in other cell types. Studies were conducted in a range of other biologically relevant cell types. In these experiments, cells were grown in media supplemented with 10% FBS, and then serum starved for 18 hours and exposed to various stimuli for 30 minutes. […] (FIG. 10), and induced caspase-3 and PARP cleavage in these cells (Table E5)
(§2) HH, HuT78 and MJ cells were treated with vehicle alone or WP1220 for 24 hours. Total caspase-3 and cleaved caspase-3 levels were measured in 15 ug lysates by a meso-Scale 2400 imager. Results represent means fold stimulations compared to the controls based on duplicate samples (+++++=15-25 fold; ++++=10-15 fold; +++=5-10 fold; =/−=less than 2 fold.

MJ cells = assay: Caspase-3 induction in MJ cells; settings: 10.0 uM, 24 hours
Procedure: as §2

HuT78 Cells = assay: Caspase-3 and PARP cleavage in HuT78 cells
Procedure: as §1, §2

[2] = tested on: STAT3 in HH, HuT78 and MJ CTCL lines; assay: STAT3 tyrosine 705 phosphorylation in CTCL lines
Procedure: To determine whether IFN alpha and beta were able to selectively phosphorylate STAT3 in other cell types. Studies were conducted in a range of other biologically relevant cell types. In these experiments, cells were grown in media supplemented with 10% FBS, and then serum starved for 18 hours and exposed to various stimuli for 30 minutes.

[3] = tested on: HuT78 and HH CTCL cell lines; assay: In vitro growth of CTCL cell lines

Question: C[C@H](NC(=O)/C(C#N)=C/C=C/c1cccc(Br)n1)c1ccccc1 [WP1220, (2E,4E)-5-(6-bromopyridin-2-yl)-2-cyano-N—((S)-1-phenylethyl)penta-2,4-dienamide] was tested. Which “pSTAT3 signal remaining after WP1220 pre-incubation” value (from here on “pSTAT3 signal remaining”) ([1]; IFN α + WP 5 uM) did it give?
Answer: +++ (+++=2,000-4,000)

Question: And the “pSTAT3 signal remaining” value ([1]; IFN α + WP 10 uM)?
Answer: ++ (++=2,000-1,500)

Question: And the “pSTAT3 signal remaining” value ([1]; IFN α + WP 20 uM)?
Answer: + (+=less than 1,500)

Question: What about the “Cleaved Caspase” value (HH cells; 5.0 uM) of the same compound?
Answer: ++++ (++++=60,000-40,000)

Question: And the “Cleaved PARP” value (HH cells; 5.0 uM)?
Answer: +++++ (+++++=10,000-7,000)

Question: And the “Cleaved Caspase” value (HH cells; 10.0 uM)?
Answer: ++++ (++++=60,000-40,000)

Question: And the “Cleaved PARP” value (HH cells; 10.0 uM)?
Answer: +++ (+++=5,000-2000)

Question: What about the “induction of caspase-3 activity (fold stimulation compared to controls)” value (HH cells; 10.0 uM, 24 hours) of the same compound?
Answer: +++++ (+++++=15-25 fold)

Question: What about the “induction of caspase-3 activity (fold stimulation compared to controls)” value (MJ cells) of the same compound?
Answer: +++ (+++=5-10 fold)

Question: What about the “Cleaved Caspase” value (HuT78 Cells; 5.0 uM) of the same compound?
Answer: ++++ (++++=60,000-40,000)

Question: What about the “Cleaved PARP” value (HuT78 Cells; 5.0 uM) of the same compound?
Answer: ++++ (++++=7,000-5,000)

Question: And the “Cleaved PARP” value (HuT78 Cells; 10.0 uM)?
Answer: +++ (+++=5,000-2000)

Question: What about the “induction of caspase-3 activity (fold stimulation compared to controls)” value (HuT78 Cells; 10.0 uM, 24 hours) of the same compound?
Answer: ++++ (++++=10-15 fold)

Question: And the “relative level of activated pSTAT3” value ([2]; HH cells)?
Answer: time dependent decrease

Question: And the “constitutive and interferon stimulated phosphorylation of STAT3” value ([2]; HH, HuT78, MJ cells (FIG. 8A, B))?
Answer: specifically blocked

Question: What about the in vitro growth [3] of the same compound?
Answer: potently inhibiting the in vitro growth
